From patent publication EP0231622B1, “Inhibition of the 5-lipoxygenase pathway” (priority 1985, dated 1987)
pIC50: −log10 of the molar value.

Target: T1, 5-LO (Rattus norvegicus, UniProt P12527)
T1 construct: The activities of these enzymes in extracts of RBL-1 cells were assayed; host or cells: RBL-1 cells, disrupted by nitrogen cavitation; 10,000 x g or 100,000 x g supernatant
T1 sequence (P12527 1-673): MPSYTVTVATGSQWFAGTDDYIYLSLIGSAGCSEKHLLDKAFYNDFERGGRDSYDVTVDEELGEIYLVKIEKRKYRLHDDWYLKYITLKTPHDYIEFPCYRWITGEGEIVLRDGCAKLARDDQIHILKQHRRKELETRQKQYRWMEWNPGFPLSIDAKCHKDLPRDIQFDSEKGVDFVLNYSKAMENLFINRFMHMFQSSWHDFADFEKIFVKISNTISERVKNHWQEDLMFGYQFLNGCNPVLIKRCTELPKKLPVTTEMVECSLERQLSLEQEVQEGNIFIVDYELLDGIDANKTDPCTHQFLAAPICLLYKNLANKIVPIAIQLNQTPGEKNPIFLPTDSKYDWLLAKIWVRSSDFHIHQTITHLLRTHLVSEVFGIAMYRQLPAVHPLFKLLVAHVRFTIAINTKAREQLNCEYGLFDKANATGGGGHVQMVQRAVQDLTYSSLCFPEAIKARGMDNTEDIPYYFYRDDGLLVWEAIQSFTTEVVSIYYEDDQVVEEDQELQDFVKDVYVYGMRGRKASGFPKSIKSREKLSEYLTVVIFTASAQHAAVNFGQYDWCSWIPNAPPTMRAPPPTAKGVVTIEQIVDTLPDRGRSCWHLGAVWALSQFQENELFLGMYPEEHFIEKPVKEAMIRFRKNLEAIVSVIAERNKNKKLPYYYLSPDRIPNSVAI
Assay: di-HETE production by RBL-1 high speed supernatant
Type: biochemical
Conditions: Table 9A; di-HETE production by RBL-1 high speed supernatant; read-out: 5-LO IC50
Method: (§1) For in vitro experiments, compounds were dissolved at appropriate concentrations in ethanol or DMSO (dimethylsulfoxide) (final concentration <1.0%) and then diluted to final concentrations using the buffers indicated in the text.
(§2) The activities of these enzymes in extracts of RBL-1 cells were assayed using the method of Jakschik and Lee, Nature, 287, 51-52 (1980). RBL-1 cells were obtained from the American Type Culture Collection (#CRL 1378) and were grown at 37°C (5% CO₂ in air) in spinner culture in MEM supplemented with 10% heat inactivated fetal calf serum. Harvested cells were washed with 50 mM sodium phosphate buffer, pH 7.0, containing 1 mM EDTA and 0.1% gelatin, resuspended in fresh buffer (5 x 10⁷ cells/ml) and disrupted by nitrogen cavitation using the Parr bomb at 750 psi for 10 min. The broken cell extract was then centrifuged at 10,000 x g for 20 minutes and the supernatant centrifuged at 100,000 x g for 60 minutes. Aliquots (0.25 mls) of the supernatant were preincubated with or without drugs for 10 min, after which 10 ul CaCl₂ (50 mM) was added and the reaction was initiated with 2.5 ul of 2.5 mM arachidonic acid-1-¹⁴C (final concentration was […]; specific activity 20,000 dpm/nmole). After incubation for 3 min at 37°C, the reaction was terminated by addition of 2 volumes (0.5 ml) ice cold acetone and the sample was allowed to deproteinize on ice for 10 min prior to centrifugation at 1,000 x g for 10 min. The deproteinized supernatant was adjusted to pH 3.5 with 2N formic acid and extracted with 2 volumes of ice cold ethyl acetate. The extracted samples were dried under argon, redissolved in ethyl acetate and applied to Whatman LK5D thin layer chromatography (TLC) plates which were developed using the A-9 solvent system [organic phase of ethyl acetate: 2,2,5-trimethylpentane:acetic acid: water (110:50:20:10)] described by Hamberg and Samuelsson, J. Biol. Chem., 241, 257-263 (1966). Arachidonic acid, 5-HETE, di-HETE and PGD₂ were quantified with a Berthold LB 2832 autoscanner.
(§3) The 5-lipoxygenase and LTA₄ synthetase activities were further studied under the following conditions. An additional centrifugation of the RBL-1 supernatant was run at 100,000 x g for 60 min, to remove the particulate cyclooxygenase activity. Sample incubation was done under conditions similar to those described above, i.e., 2 mM CaCl₂ and 25 uM arachidonic acid-1-¹⁴C, however, with an incubation time of 5 min at […]. Under these conditions, only the 5-lipoxygenase pathway metabolites were detectable. The 5-HETE and di-HETEs were formed at a linear rate, and […] amounts of the arachidonic acid-1-¹⁴C substrate were utilized.

Question: How did the pIC50 turn out when `Fc1ccc(-c2c(-c3ccncc3)nc3n2CCS3)cc1` [Compound 12] was run?
Answer: 4.77

Question: How did the pIC50 turn out when `COc1ccc(-c2nc3n(c2-c2ccc(OC)cc2)CCCS3)cc1` [Compound 20] was run?
Answer: 5.25

Question: With `CC(=O)Nc1ccc(-c2nc3n(c2-c2ccncc2)CCS3)cc1` [Compound 38, 5-(4-pyridyl)-6-(4-acetamidophenyl)-2,3-dihydroimidazo [(2,1-b)]thiazole] as the compound, how does the pIC50 read?
Answer: 4.52

Question: How did the pIC50 turn out when `c1cc(-c2c(-c3ccc4c(c3)OCO4)nc3n2CCS3)ccn1` [Compound 5, 5-(4-pyridyl)-6-(3,4-methylenedioxyphenyl)-2,3-dihydroimidazo[2,1-b]thiazole] was run?
Answer: 5.00

Question: How did the pIC50 turn out when `CCN(CC)c1ccc(-c2nc3n(c2-c2ccc(N(CC)CC)cc2)CCS3)cc1` [Compound 9, 5,6-bis(4-N,N-diethylaminophenyl)-2,3-dihydroimidazo [2,1-b]thiazole] was run?
Answer: 6.80

Question: `COc1ccc(-c2nc3n(c2-c2ccc(OC)cc2)CCS3(=O)=O)cc1` [Compound 43] was tested. Which pIC50 did it give?
Answer: 5.00

Question: `CCNc1ccc(-c2nc3n(c2-c2ccc(NCC)cc2)CCS3)cc1` [Compound 17] was tested. Which pIC50 did it give?
Answer: 7.00

Question: `c1cc(-c2c(-c3ccc(N4CCCC4)cc3)nc3n2CCS3)ccn1` [Compound 25, 5-(4-pyridyl)-6-(4-(pyrrolidin-1-yl)phenyl)-2,3-dihydroimidazo[2,1-b]thiazole] was tested. Which pIC50 did it give?
Answer: 6.30

Question: `Fc1ccc(-c2nc3n(c2-c2ccc(F)cc2)CCS3)cc1` [Compound 19] was tested. Which pIC50 did it give?
Answer: 5.30

Question: With `O=S1(=O)CCn2c1nc(-c1ccc(F)cc1)c2-c1ccc(F)cc1` [Compound 31] as the compound, how does the pIC50 read?
Answer: > 4.48

Question: With `c1cc2c(cc1-c1nc3n(c1-c1ccc4c(c1)OCO4)CCS3)OCO2` [Compound 16] as the compound, how does the pIC50 read?
Answer: 5.82

Question: With `COc1ccc(-c2nc3n(c2-c2ccc(F)cc2)CCS3)cc1` [Compound 14] as the compound, how does the pIC50 read?
Answer: 6.22

Question: `[O-][S+]1CCn2c1nc(-c1ccc(F)cc1)c2-c1ccc(F)cc1` (stereo not shown) [Compound 30] was tested. Which pIC50 did it give?
Answer: 4.22

Question: How did the pIC50 turn out when `N#Cc1ccc(-c2nc3n(c2-c2ccc(C#N)cc2)CCS3)cc1` [Compound 13, 5,6-bis(4-cyanophenyl)-2,3-dihydroimidazo[2,1-b]thiazole] was run?
Answer: 4.82

Question: `CN(C)c1ccc(-c2nc3n(c2-c2ccc(F)cc2)CCS3)cc1` [Compound 6, 6-(4-N,N-dimethylaminophenyl)-5-(4-fluorophenyl)-2,3-dihydroimidazo[2,1-b]thiazole] was tested. Which pIC50 did it give?
Answer: 6.22

Target: T2, 5-Lipoxygenase (Rattus norvegicus, UniProt P12527)
T2 construct: The activities of these enzymes in extracts of RBL-1 cells were assayed; host or cells: RBL-1 cells, disrupted by nitrogen cavitation; 10,000 x g or 100,000 x g supernatant
T2 sequence (P12527 1-673): T1 sequence (P12527 1-673)
Assay: 5-HETE production by RBL-1 high speed supernatant
Type: biochemical
Conditions: Table 8A; RBL-1 high speed supernatant
Method: as §1, §2, §3

Question: `Fc1ccc(-c2c(-c3ccncc3)nc3n2CCS3)cc1` [Compound 12] was tested. Which pIC50 did it give?
Answer: 4.80

Question: How did the pIC50 turn out when `COc1ccc(-c2nc3n(c2-c2ccc(OC)cc2)CCCS3)cc1` [Compound 20] was run?
Answer: 5.25

Question: `CC(=O)Nc1ccc(-c2nc3n(c2-c2ccncc2)CCS3)cc1` [Compound 38, 5-(4-pyridyl)-6-(4-acetamidophenyl)-2,3-dihydroimidazo [(2,1-b)]thiazole] was tested. Which pIC50 did it give?
Answer: 4.16

Question: With `c1cc(-c2c(-c3ccc4c(c3)OCO4)nc3n2CCS3)ccn1` [Compound 5, 5-(4-pyridyl)-6-(3,4-methylenedioxyphenyl)-2,3-dihydroimidazo[2,1-b]thiazole] as the compound, how does the pIC50 read?
Answer: 5.00

Question: With `CCN(CC)c1ccc(-c2nc3n(c2-c2ccc(N(CC)CC)cc2)CCS3)cc1` [Compound 9, 5,6-bis(4-N,N-diethylaminophenyl)-2,3-dihydroimidazo [2,1-b]thiazole] as the compound, how does the pIC50 read?
Answer: 6.46

Question: How did the pIC50 turn out when `COc1ccc(-c2nc3n(c2-c2ccc(OC)cc2)CCS3(=O)=O)cc1` [Compound 43] was run?
Answer: 5.00

Question: `CCNc1ccc(-c2nc3n(c2-c2ccc(NCC)cc2)CCS3)cc1` [Compound 17] was tested. Which pIC50 did it give?
Answer: 7.00

Question: `c1cc(-c2c(-c3ccc(N4CCCC4)cc3)nc3n2CCS3)ccn1` [Compound 25, 5-(4-pyridyl)-6-(4-(pyrrolidin-1-yl)phenyl)-2,3-dihydroimidazo[2,1-b]thiazole] was tested. Which pIC50 did it give?
Answer: 6.30

Question: With `Fc1ccc(-c2nc3n(c2-c2ccc(F)cc2)CCS3)cc1` [Compound 19] as the compound, how does the pIC50 read?
Answer: 5.07

Question: `O=S1(=O)CCn2c1nc(-c1ccc(F)cc1)c2-c1ccc(F)cc1` [Compound 31] was tested. Which pIC50 did it give?
Answer: 4.48

Question: How did the pIC50 turn out when `c1cc2c(cc1-c1nc3n(c1-c1ccc4c(c1)OCO4)CCS3)OCO2` [Compound 16] was run?
Answer: 5.42

Question: `COc1ccc(-c2nc3n(c2-c2ccc(F)cc2)CCS3)cc1` [Compound 14] was tested. Which pIC50 did it give?
Answer: 5.70

Question: With `[O-][S+]1CCn2c1nc(-c1ccc(F)cc1)c2-c1ccc(F)cc1` (stereo not shown) [Compound 30] as the compound, how does the pIC50 read?
Answer: 4.15

Question: With `N#Cc1ccc(-c2nc3n(c2-c2ccc(C#N)cc2)CCS3)cc1` [Compound 13, 5,6-bis(4-cyanophenyl)-2,3-dihydroimidazo[2,1-b]thiazole] as the compound, how does the pIC50 read?
Answer: 4.80

Question: How did the pIC50 turn out when `COc1ccc(-c2nc3n(c2-c2ccc(OC)cc2)CCC3)cc1` [Compound 22] was run?
Answer: 5.40

Question: `CN(C)c1ccc(-c2nc3n(c2-c2ccc(F)cc2)CCS3)cc1` [Compound 6, 6-(4-N,N-dimethylaminophenyl)-5-(4-fluorophenyl)-2,3-dihydroimidazo[2,1-b]thiazole] was tested. Which pIC50 did it give?
Answer: 6.10
